Results taken from US7915448B2, “Substituted sulfonylaminoarylmethyl cyclopropanecarboxamide as VR1 receptor antagonists” (Pfizer Inc., priority 2005, dated 2011).

What was measured:
[1] = Half-life in Human Liver Microsomes (HLM); settings: human, human liver microsomes (HL101), pH 7.4
human VR1 receptors = biological target: T1, human VR1 receptors (Homo sapiens, UniProt Q8NER1); experiment: Human VR1 antagonist assay (Ca2+ imaging); format: cell-based; settings: cells expressing human VR1, fura-2 Ca2+ imaging, FDSS 6000; capsaicin (300 nM) or acid (pH5.8) stimulation, table does not say which
T1 construct: host or cells: cells highly expressing human VR1; cell type not specified
From the text: Human VR1 Antagonist Assay
VR1 antagonistic activity can be determined by the Ca^2+ imaging assay using human VR1 highly expressing cells. The cells that highly express human VR1 receptors are obtainable from several different conventional methods. The one standard method is cloning from human Dorsal Root Ganglion (DRG) or kidney according to the methods such as described in the journal article; Nature, 389, pp 816-824, 1997. Alternatively VR1 receptors highly expressing human keratinocytes are also known and published in the journal article (Biochemical and Biophysical Research Communications, 291, pp 124-129, 2002). […] Further more, the method to up regulate human VR1 gene, which is usually a silent gene or don't produce detectable level of VR1 receptors, is also available to obtain propriety cells. Such genetic modification method was described in detail; Nat. Biotechnol., 19, pp 440-445, 2001.
The cells that express human VR1 receptors were maintained in culture flask at 37° C. in an environment containing 5% CO2 until use in the assay. The intracellular Ca^2+ imaging assay to determine VR1 antagonistic activities were done by following procedures.
The culture medium was removed from the flask and fura-2/AM fluorescent calcium indicator was added to the flask at a concentration of 5 μM in the medium. The flask was placed in CO2 incubator and incubated for 1 hour. Then the cells expressing the human VR1 receptors were detached from the flask follow by washing with phosphate buffer saline, PBS(−) and re-suspended in assay buffer. The 80 μl of aliquot of cell suspension (3.75×10^5 cells/ml) was added to the assay plate and the cells were spun down by centrifuge (950 rpm, 20° C., 3 minutes).
Capsaicin Stimulation Assay:
The capsaicin-induced changes in the intracellular calcium concentration were monitored using FDSS 6000 (Hamamatsu Photonics, Japan), a fluorometric imaging system. The cell suspension in Krebs-Ringer HEPES (KRH) buffer (115 mM NaCl, 5.4 mM KCl, 1 mM MgSO4, 1.8 mM CaCl2, 11 mM D-Glucose, 25 mM HEPES, 0.96 mM Na2HPO4, pH 7.3) were pre-incubated with varying concentrations of the test compounds or KRH buffer (buffer control) for 15 minutes at room temperature under the dark condition. Then capsaicin solution, which gives 300 nM in assay mixture, was automatically added to the assay plate by the FDSS 6000.
The Acid-induced changes in the intracellular calcium concentration were monitored using FDSS 6000 (Hamamatsu Photonics, Japan), a fluorometric imaging system. The cell suspension in resting buffer (HBSS supplemented with 10 mM HEPES, pH 7.4) were pre-incubated with varying concentrations of the test compounds or resting buffer (buffer control) for 15 minutes at room temperature under the dark condition. The cells were automatically added the stimulating solution (HBSS supplemented with MES, final assay buffer pH5.8) by the FDSS 6000.
Determination of Antagonist Activity
The monitoring of the changes in the fluorescence signals (λex=340 nm/380 nm, λem=510-520 nm) was initiated at 1 minute prior to the addition of capsaicin solution or acidic buffer and continued for 5 minute.

T1 sequence (Q8NER1 whole entry): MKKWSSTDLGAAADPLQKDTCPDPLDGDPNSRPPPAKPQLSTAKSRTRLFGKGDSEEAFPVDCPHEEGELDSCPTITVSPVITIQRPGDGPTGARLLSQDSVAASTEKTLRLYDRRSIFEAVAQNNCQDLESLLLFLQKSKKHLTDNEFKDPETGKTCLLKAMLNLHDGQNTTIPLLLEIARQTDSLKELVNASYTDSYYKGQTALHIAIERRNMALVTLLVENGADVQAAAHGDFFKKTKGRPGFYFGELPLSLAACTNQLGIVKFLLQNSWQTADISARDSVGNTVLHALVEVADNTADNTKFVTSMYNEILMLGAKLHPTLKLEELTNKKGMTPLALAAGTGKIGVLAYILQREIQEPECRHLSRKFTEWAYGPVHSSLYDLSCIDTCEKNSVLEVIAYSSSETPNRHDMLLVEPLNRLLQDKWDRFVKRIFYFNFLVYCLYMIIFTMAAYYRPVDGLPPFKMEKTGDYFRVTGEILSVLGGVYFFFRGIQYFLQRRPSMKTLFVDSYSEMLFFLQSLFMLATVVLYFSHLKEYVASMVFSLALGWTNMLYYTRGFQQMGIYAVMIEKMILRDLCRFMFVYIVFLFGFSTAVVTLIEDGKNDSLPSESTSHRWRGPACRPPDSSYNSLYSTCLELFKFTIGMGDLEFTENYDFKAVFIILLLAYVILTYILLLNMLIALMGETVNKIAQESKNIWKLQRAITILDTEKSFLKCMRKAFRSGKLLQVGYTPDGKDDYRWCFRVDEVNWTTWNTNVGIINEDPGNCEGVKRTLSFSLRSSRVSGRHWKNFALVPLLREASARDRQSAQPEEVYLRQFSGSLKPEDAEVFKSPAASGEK

half-life at 1 μM [1] [min] | IC50 (human VR1 receptors) [nM] | SMILES
> 120 | 3.17 | C[C@@H](NC(=O)[C@H]1C[C@]1(C)c1ccc(C(F)(F)F)cc1)c1cc(F)c(NS(C)(=O)=O)c(F)c1 [Example 61, (1S,2S)-N-((1R)-1-{3,5-Difluoro-4-[(methylsulfonyl)amino]phenyl}ethyl)-2-methyl-2-[4-(trifluoromethyl)phenyl]cyclopropanecarboxamide]
> 120 | 47 | C[C@@H](NC(=O)C1CC1c1ccc(C(F)(F)F)cc1)c1ccc(NS(C)(=O)=O)c(CO)c1 (stereo partly drawn) [Example 20, N-((1R)-1-{3-(Hydroxymethyl)-4-[(methylsulfonyl)amino]phenyl}ethyl)-2-[4-(trifluoromethyl)phenyl]cyclopropanecarboxamide]
39 | 56.2 | CCc1cc([C@@H](C)NC(=O)[C@H]2C[C@@H]2c2ccc(C(F)(F)F)cc2)ccc1NS(C)(=O)=O [Example 33, N-((1R)-1-{3-Ethyl-4-[(methylsulfonyl)amino]phenyl}ethyl)-2-[4-(trifluoromethyl)phenyl]cyclopropanecarboxamide]
4 | 239 | C[C@@H](NC(=O)C1CC1c1ccc(C(C)(C)C)nc1N1CCCCC1)c1ccc(NS(C)(=O)=O)c(F)c1 (stereo partly drawn) [Example 50, 2-(6-tert-Butyl-2-piperidin-1-ylpyridin-3-yl)-N-((1R)-1-{3-fluoro-4-[(methylsulfonyl)amino]phenyl}ethyl)cyclopropanecarboxamide]
19 | 17.9 | CCc1cc([C@@H](C)NC(=O)C2CC2(C)c2ccc(OC(F)(F)F)cc2)ccc1NS(C)(=O)=O (mixture of isomers) [Example 29, N-((1R)-1-{3-Ethyl-4-[(methylsulfonyl)amino]phenyl}ethyl)-2-methyl-2-{4-[(trifluoromethyl)oxy]phenyl}cyclopropanecarboxamide]
37 | 1.2 | C[C@@H](NC(=O)[C@H]1C[C@]1(C)c1ccc(C(F)(F)F)cc1)c1ccc(NS(C)(=O)=O)c(CO)c1 [Example 22, (1S,2S)-N-((1R)-1-{3-(Hydroxymethyl)-4-[(methylsulfonyl)amino]phenyl}ethyl)-2-methyl-2-[4 (trifluoromethyl)phenyl]cyclopropanecarboxamide]
32 | 11.2 | Cc1cc([C@@H](C)NC(=O)C2CC2c2ccc(C(C)(C)C)c(F)c2)ccc1NS(C)(=O)=O (stereo partly drawn) [Example 2, 2-(4-tert-Butyl-3-fluorophenyl)-N-((1R)-1-{3-methyl-4-[(methylsulfonyl)amino]phenyl}ethyl)cyclopropanecarboxamide]
19.7 | 0.713 | Cc1cc([C@@H](C)NC(=O)[C@H]2C[C@]2(C)c2ccc(C(F)(F)F)c(F)c2)c(F)cc1NS(C)(=O)=O [Example 42, N-((1R)-1-{2-Fluoro-5-methyl-4-[(methylsulfonyl)amino]phenyl}ethyl)-2-[3-fluoro-4-(trifluoromethyl)phenyl]-2-methylcyclopropanecarboxamide]
> 120 | 192 | CC[C@@H](NC(=O)[C@H]1C[C@]1(C)c1ccc(C(F)(F)F)cc1)c1ccc(NS(C)(=O)=O)cc1 [Example 31, (1S,2S)-2-Methyl-N-((1R)-1-{4-[(methylsulfonyl)amino]phenyl}propyl)-2-[4-(trifluoromethyl)phenyl]cyclopropanecarboxamide]
3 | 125 | Cc1cc([C@@H](C)NC(=O)C2CC2c2ccc(C(C)(C)C)nc2N2CCCCC2)ccc1NS(C)(=O)=O (stereo partly drawn) [Example 49, 2-(6-tert-Butyl-2-piperidin-1-ylpyridin-3-yl)-N-((1R)-1-{3-methyl-4-[(methylsulfonyl)amino]phenyl}ethyl)cyclopropanecarboxamide]
22 | 3.59 | Cc1cc([C@@H](C)NC(=O)C2CC2(C)c2ccc(C(C)(C)C)nc2)ccc1NS(C)(=O)=O (stereo partly drawn) [Example 10, 2-(6-tert-Butylpyridin-3-yl)-2-methyl-N-((1R)-1-{3-methyl-4-[(methylsulfonyl)amino]phenyl}ethyl)cyclopropanecarboxamide]
29 | 5.84 | C[C@@H](NC(=O)[C@H]1C[C@]1(C)c1cc(F)c(C(C)(C)C)c(F)c1)c1ccc(NS(C)(=O)=O)c(F)c1 [Example 45, 2-(4-tert-Butyl-3,5-difluorophenyl)-N-((1R)-1-{3-fluoro-4-[(methylsulfonyl)amino]phenyl}ethyl)-2-methylcyclopropanecarboxamide]
35 | 32.5 | C[C@@H](NC(=O)[C@H]1C[C@@H]1c1cc(F)c(C(C)(C)C)c(F)c1)c1ccc(NS(C)(=O)=O)c(F)c1 [Example 40, 2-(4-tert-Butyl-3,5-difluorophenyl)-N-((1R)-1-{3-fluoro-4-[(methylsulfonyl)amino]phenyl}ethyl)cyclopropanecarboxamide]
26 | 62 | Cc1cc([C@H](C)NC(=O)[C@H]2C[C@]2(C)c2ccc(C(F)(F)F)cc2)ccc1NS(C)(=O)=O (single isomer, unassigned) [Example 82]
34 | 0.421 | Cc1cc([C@@H](C)NC(=O)C2CC2(C)c2ccc(C(F)(F)F)c(F)c2)ccc1NS(C)(=O)=O (stereo partly drawn) [Example 66, 2-[3-Fluoro-4-(trifluoromethyl)phenyl]-2-methyl-N-((1R)-1-{3-methyl-4-[(methylsulfonyl)amino]phenyl}ethyl)cyclopropanecarboxamide]
10 | 11.8 | CCc1cc([C@@H](C)NC(=O)C2CC2(C)c2ccc(OC(F)(F)F)cc2)ccc1NS(C)(=O)=O (single isomer, unassigned) [Example 75]
15 | 9.12 | Cc1cc([C@@H](C)NC(=O)[C@H]2C[C@@H]2c2cc(F)c(C(C)(C)C)c(F)c2)ccc1NS(C)(=O)=O [Example 39, 2-(4-tert-Butyl-3,5-difluorophenyl)-N-((1R)-1-{3-methyl-4-[(methylsulfonyl)amino]phenyl}ethyl)cyclopropanecarboxamide]
11 | 7.64 | C[C@@H](NC(=O)[C@H]1C[C@@H]1c1ccc(C(F)(F)F)nc1N1CCCC1)c1ccc(NS(C)(=O)=O)c(CO)c1 [Example 47, N-((1R)-1-{3-(Hydroxymethyl)-4-[(methylsulfonyl)amino]phenyl}ethyl)-2-[2-pyrrolidin-1-yl-6-(trifluoromethyl)pyridin-3-yl]cyclopropanecarboxamide]
> 120 | 1250 | Cc1nc([C@@H](C)NC(=O)C2CC2c2ccc(C(F)(F)F)cc2)ccc1NS(C)(=O)=O (single isomer, unassigned) [Example 56]
29 | 2 | Cc1cc([C@@H](C)NC(=O)[C@H]2C[C@]2(C)c2cc(F)c(C(C)(C)C)c(F)c2)ccc1NS(C)(=O)=O [Example 44, 2-(4-tert-Butyl-3,5-difluorophenyl)-2-methyl-N-((1R)-1-{3-methyl-4-[(methylsulfonyl)amino]phenyl}ethyl)cyclopropanecarboxamide]
21 | 0.234 | Cc1cc([C@@H](C)NC(=O)[C@H]2C[C@]2(C)c2ccc(C(F)(F)F)cc2)c(F)cc1NS(C)(=O)=O [Example 41, (1S,2S)-N-((1R)-1-{2-Fluoro-5-methyl-4-[(methylsulfonyl)amino]phenyl}ethyl)-2-methyl-2-[4-(trifluoromethyl)phenyl]cyclopropanecarboxamide]
30 | 26.6 | C[C@@H](NC(=O)C1CC1(C)c1ccc(SC(F)(F)F)cc1)c1ccc(NS(C)(=O)=O)c(CO)c1 (stereo partly shown) [Example 25]
> 120 | 25.1 | C[C@@H](NC(=O)[C@H]1C[C@]1(C)c1ccc(C(F)(F)F)cc1)c1cc(F)c(NS(C)(=O)=O)cc1F [Example 60, (1S,2S)-N-((1R)-1-{2,5-Difluoro-4-[(methylsulfonyl)amino]phenyl}ethyl)-2-methyl-2-[4-(trifluoromethyl)phenyl]cyclopropanecarboxamide]
